Assay [1] has as its target CHK1 (Homo sapiens (Human), UniProt O14757). The assay can be described thus: CHK1 inhibitory activity test (IMAP TR-FRET). In kind it is biochemical. The following applies: for inhibition at 0.0001 µM: read-out: CHK1 inhibition % at 0.1 nM; for effect of suppressing CHK1 activity (in words): compared with prexasertib. Here is the method: IMAP TR-FRET Screening Express Kit (R8160) was obtained from Molecular Devices. […] FAM-PKAtide (R7255, Molecular Devices) and FAM-Phospho-PKAtide (R7304, Molecular Devices) were admixed after dilution, and calibration standard systems for phosphorylation levels from 0 to 100% were created. 5 μL of a compound dissolved in a 0.4% DMSO solution was added to a 384 well plate. A compound study group to which 5 μL of each of CHK1, CHK1tide, and ATP was added, and a standard group to which 20 μL of standard was added were created, and subjected to a kinase reaction for 3 hours at 30° C. Subsequently, 60 μL of Binding Reagent (80% Buffer A, 20% Buffer B, 1:600 Binding Reagent, 1:400 Tb-Donor) was added for a binding reaction for 2 hours at room temperature.
(In general: TR-FRET usually uses a lanthanide donor and a delayed reading to cut background.)

The subject of assay [2] is ES-2 cells. Nature of the assay: Cell growth suppression experiment. In kind it is cell-based. The following applies: for IC50: Homo sapiens, 48 h, cultured for 2 days, read-out: IC50 (cell growth suppression, ranking); for cell growth suppression effect (in words): compared with prexasertib. The protocol: ES-2 cells were obtained from the American Type Culture Collection (ATCC). These cells were cultured at 37° C. in the presence of 5% CO2 in a 10% fetal bovine serum, […] penicillin/streptomycin containing McCoy's 5a medium.
500 cells were seeded for each well in a 384-well plate, and the evaluated compound was added so that the final concentration of DMSO would be 0.1% to culture the cells for 2 days. After completion of the culture, the cell viability rate was calculated using CellTiter-Glo® 3D Reagent (Promega, G968B).

Chain of CHK1 (O14757 whole entry): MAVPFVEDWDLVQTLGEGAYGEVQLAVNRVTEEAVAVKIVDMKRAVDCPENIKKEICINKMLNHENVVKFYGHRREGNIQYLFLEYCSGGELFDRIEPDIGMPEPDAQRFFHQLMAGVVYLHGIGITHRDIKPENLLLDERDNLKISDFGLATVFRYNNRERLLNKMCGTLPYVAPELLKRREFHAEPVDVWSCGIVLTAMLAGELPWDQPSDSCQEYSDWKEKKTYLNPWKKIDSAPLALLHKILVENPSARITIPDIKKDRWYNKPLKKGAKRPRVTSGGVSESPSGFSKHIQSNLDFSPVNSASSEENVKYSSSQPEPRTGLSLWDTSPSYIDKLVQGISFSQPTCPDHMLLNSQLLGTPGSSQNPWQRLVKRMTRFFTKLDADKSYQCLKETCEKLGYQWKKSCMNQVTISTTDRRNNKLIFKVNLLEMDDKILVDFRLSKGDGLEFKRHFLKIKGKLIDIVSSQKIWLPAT

In general, inhibition refers to the share of the control response that was lost under treatment. The IC50 is the concentration at which inhibition is half-maximal. Consider `COc1cncc(O[C@H](C)C2(O)CNC2)c1-c1cc(Nc2cnc(C#N)cn2)n[nH]1` [Example 34, 5-[(5-{3-[(1R)-1-(3-hydroxyazetidin-3-yl)ethoxy]-5-methoxypyridin-4-yl}-1H-pyrazol-3-yl)amino]pyrazine-2-carbonitrile], for which the inhibition at 0.0001 µM in assay [1] was less than 5%. Moreover, in assay [2], the IC50 is greater than 1000 nM.

In the case of `COc1cncc(OC[C@@H](C)CN)c1-c1cc(Nc2cnc(C#N)cn2)n[nH]1` [Example 27], the inhibition at 0.0001 µM in assay [1] was less than 5%. The 50% inhibitory concentration (IC50) in assay [2] is less than 30 nM.

Turning to `COc1cncc(OC[C@@H](O)CN)c1-c1cc(Nc2cnc(C#N)cn2)n[nH]1` [Example 14, 5-[(5-{3-[(2S)-3-amino-2-hydroxypropoxy]-5-methoxypyridin-4-yl}-1H-pyrazol-3-yl)amino]pyrazine-2-carbonitrile], in assay [1], the “effect of suppressing CHK1 activity (in words)” value was “more potent effect of suppressing CHK1 activity than prexasertib” and the inhibition at 0.0001 µM came to 30%. Besides, in assay [2], the half-maximal inhibitory concentration (IC50) was in the range of 300 to 1000 nM.

Regarding `COc1nccc(OCC2(O)CNC2)c1-c1cc(Nc2cnc(C#N)cn2)n[nH]1` [Example 7, 5-[(5-{4-[(3-hydroxyazetidin-3-yl)methoxy]-2-methoxypyridin-3-yl}-1H-pyrazol-3-yl)amino]pyrazine-2-carbonitrile], in assay [1], the “effect of suppressing CHK1 activity (in words)” value is recorded as “more potent effect of suppressing CHK1 activity than prexasertib” and the inhibition at 0.0001 µM stood at 29%. In addition, the concentration for half-maximal inhibition (IC50) in assay [2] fell in the range of 30 to 100 nM.

`CN[C@@H]1CC[C@@H](Oc2cncc(OC)c2-c2cc(Nc3cnc(C#N)cn3)n[nH]2)C1` [Example 35, 5-{[5-(3-methoxy-5-{[(1R,3R)-3-(methylamino)cyclopentyl]oxy}pyridin-4-yl)-1H-pyrazol-3-yl]amino}pyrazine-2-carbonitrile]: in assay [1], the inhibition at 0.0001 µM is less than 5%. Moreover, in assay [2], the IC50 is less than 30 nM and the “cell growth suppression effect (in words)” value was “excellent cell growth suppression effect that is equivalent to that of prexasertib”.

Take `COc1cncc(OCCCN)c1-c1cc(Nc2cnc(C#N)cn2)n[nH]1` [Example 3, 5-({5-[3-(3-aminopropoxy)-5-methoxypyridin-4-yl]-1H-pyrazol-3-yl}amino)pyrazine-2-carbonitrile]: in assay [1], the “effect of suppressing CHK1 activity (in words)” value is recorded as “more potent effect of suppressing CHK1 activity than prexasertib” and the inhibition at 0.0001 µM was found to be 28%. For the same molecule, in assay [2], the IC50 was less than 30 nM and the “cell growth suppression effect (in words)” value is “excellent cell growth suppression effect that is equivalent to that of prexasertib”.

As for `COc1cncc(OCC[C@H](C)N)c1-c1cc(Nc2cnc(C#N)cn2)n[nH]1` [Example 10, 5-[(5-{3-[(3S)-3-aminobutoxy]-5-methoxypyridin-4-yl}-1H-pyrazol-3-yl)amino]pyrazine-2-carbonitrile], in assay [1], the “effect of suppressing CHK1 activity (in words)” value is on record as “more potent effect of suppressing CHK1 activity than prexasertib” and the inhibition at 0.0001 µM was found to be 20%. In addition, the IC50 in assay [2] lay in the range of 30 to 100 nM.

Regarding `CNCCCOc1cncc(OC)c1-c1cc(Nc2cnc(C#N)cn2)n[nH]1` [Example 31, 5-[(5-{3-methoxy-5-[3-(methylamino)propoxy]pyridin-4-yl}-1H-pyrazol-3-yl)amino]pyrazine-2-carbonitrile], the inhibition at 0.0001 µM in assay [1] was less than 5%. Also, in assay [2], the IC50 is less than 30 nM and the “cell growth suppression effect (in words)” value was “excellent cell growth suppression effect that is equivalent to that of prexasertib”.

Regarding `COc1cncc(OCC2(C(F)F)CNC2)c1-c1cc(Nc2cnc(C#N)cn2)n[nH]1` [Example 26, 5-{[5-(3-{[3-(difluoromethyl)azetidin-3-yl]methoxy}-5-methoxypyridin-4-yl)-1H-pyrazol-3-yl]amino}pyrazine-2-carbo nitrile], in assay [1], the “effect of suppressing CHK1 activity (in words)” value is “more potent effect of suppressing CHK1 activity than prexasertib” and the inhibition at 0.0001 µM came out at 42%. Moreover, in assay [2], the IC50 was less than 30 nM and the “cell growth suppression effect (in words)” value is listed as “excellent cell growth suppression effect that is equivalent to that of prexasertib”.

Take `N#Cc1cnc(Nc2cc(-c3c(OCF)cncc3OCCCN)[nH]n2)cn1` [Example 24, 5-({5-[3-(3-aminopropoxy)-5-(fluoromethoxy)pyridin-4-yl]-1H-pyrazol-3-yl}amino)pyrazine-2-carbonitrile]: in assay [1], the “effect of suppressing CHK1 activity (in words)” value is “more potent effect of suppressing CHK1 activity than prexasertib” and the inhibition at 0.0001 µM is 23%. The IC50 in assay [2] was in the range of 300 to 1000 nM.

Take `COc1cncc(O[C@@H]2CC[C@@H](N)C2)c1-c1cc(Nc2cnc(C#N)cn2)n[nH]1` [Example 32, 5-{[5-(3-{[(1R,3R)-3-aminocyclopentyl]oxy}-5-methoxypyridin-4-yl)-1H-pyrazol-3-yl]amino}pyrazine-2-carbonitrile]: in assay [2], the IC50 is less than 30 nM and the “cell growth suppression effect (in words)” value is on record as “excellent cell growth suppression effect that is equivalent to that of prexasertib”.

Regarding `COc1cncc(O[C@H]2C[C@H](N)[C@H]3C[C@H]32)c1-c1cc(Nc2cnc(C#N)cn2)n[nH]1` [Example 36, 5-{[5-(3-{[(1R,2S,4S,5S)-4-aminobicyclo[3.1.0]hexan-2-yl]oxy}-5-methoxypyridin-4-yl)-1H-pyrazol-3-yl]amino}pyrazine-2-carbonitrile], the inhibition at 0.0001 µM in assay [1] was less than 5%. Further, in assay [2], the IC50 was less than 30 nM and the “cell growth suppression effect (in words)” value is on record as “excellent cell growth suppression effect that is equivalent to that of prexasertib”.

Regarding `COc1ccnc(OCCCN)c1-c1cc(Nc2cnc(Cl)cn2)n[nH]1` [Example 15, N-{5-[2-(3-aminopropoxy)-4-methoxypyridin-3-yl]-1H-pyrazol-3-yl}-5-chloropyrazin-2-amine], in assay [1], the “effect of suppressing CHK1 activity (in words)” value is reported as “more potent effect of suppressing CHK1 activity than prexasertib” and the inhibition at 0.0001 µM worked out at 29%. In addition, in assay [2], the IC50 is less than 30 nM and the “cell growth suppression effect (in words)” value is “excellent cell growth suppression effect that is equivalent to that of prexasertib”.

As for `COc1cc(Cl)nc(OCCCN)c1-c1cc(Nc2cnc(C#N)cn2)n[nH]1` [Example 2, 5-({5-[2-(3-aminopropoxy)-6-chloro-4-methoxypyridin-3-yl]-1H-pyrazol-3-yl}amino)pyrazine-2-carbonitrile], in assay [1], the “effect of suppressing CHK1 activity (in words)” value is “more potent effect of suppressing CHK1 activity than prexasertib” and the inhibition at 0.0001 µM came out at 31%. The IC50 in assay [2] is 30 to 100 nM.

In the case of `COc1nccc(OCCCN)c1-c1cc(Nc2cnc(C#N)cn2)n[nH]1` [Example 4, 5-({5-[4-(3-aminopropoxy)-2-methoxypyridin-3-yl]-1H-pyrazol-3-yl}amino)pyrazine-2-carbonitrile], in assay [1], the “effect of suppressing CHK1 activity (in words)” value is “more potent effect of suppressing CHK1 activity than prexasertib” and the inhibition at 0.0001 µM came out at 25%. In assay [2], the IC50 was less than 30 nM and the “cell growth suppression effect (in words)” value is reported as “excellent cell growth suppression effect that is equivalent to that of prexasertib”.

Turning to `COc1cncc(OC[C@H](C)CN)c1-c1cc(Nc2cnc(C#N)cn2)n[nH]1` [Example 28], the inhibition at 0.0001 µM in assay [1] is less than 5%. Also, in assay [2], the IC50 is less than 30 nM.

Regarding `COc1cncc(OCC2(C)CNC2)c1-c1cc(Nc2cnc(C#N)cn2)n[nH]1` [Example 25, 5-[(5-{3-methoxy-5-[(3-methylazetidin-3-yl)methoxy]pyridin-4-yl}-1H-pyrazol-3-yl)amino]pyrazine-2-carbonitrile], the inhibition at 0.0001 µM in assay [1] is less than 5%. For the same molecule, in assay [2], the IC50 is less than 30 nM and the “cell growth suppression effect (in words)” value is recorded as “excellent cell growth suppression effect that is equivalent to that of prexasertib”.

For the molecule `COc1nccc(OCC2(C)CNC2)c1-c1cc(Nc2cnc(C#N)cn2)n[nH]1` [Example 6, 5-[(5-{2-methoxy-4-[(3-methylazetidin-3-yl)methoxy]pyridin-3-yl}-1H-pyrazol-3-yl)amino]pyrazine-2-carbonitrile], in assay [1], the “effect of suppressing CHK1 activity (in words)” value was “more potent effect of suppressing CHK1 activity than prexasertib” and the inhibition at 0.0001 µM was found to be 15%. Also, in assay [2], the IC50 is less than 30 nM and the “cell growth suppression effect (in words)” value is “excellent cell growth suppression effect that is equivalent to that of prexasertib”.

`COc1cncc(O[C@@H]2CCC[C@H](N)C2)c1-c1cc(Nc2cnc(C#N)cn2)n[nH]1` [Example 19, 5-{[5-(3-{[(1R,3S)-3-aminocyclohexyl]oxy}-5-methoxypyridin-4-yl)-1H-pyrazol-3-yl]amino}pyrazine-2-carbonitrile]: in assay [1], the “effect of suppressing CHK1 activity (in words)” value is reported as “more potent effect of suppressing CHK1 activity than prexasertib” and the inhibition at 0.0001 µM was found to be 20%. In addition, in assay [2], the IC50 was less than 30 nM and the “cell growth suppression effect (in words)” value is given as “excellent cell growth suppression effect that is equivalent to that of prexasertib”.

For `COc1cncc(OCC2(F)CNC2)c1-c1cc(Nc2cnc(C#N)cn2)n[nH]1` [Example 5, 5-[(5-{3-[(3-fluoroazetidin-3-yl)methoxy]-5-methoxypyridin-4-yl}-1H-pyrazol-3-yl)amino]pyrazine-2-carbonitrile], the inhibition at 0.0001 µM in assay [1] is 15%. Also, in assay [2], the IC50 was less than 30 nM.

The record behind these values is patent publication US11564920B2, “5-heteroaryl-1H-pyrazol-3-amine derivative” (Sumitomo Pharma Co., Ltd., priority 2020, dated 2023).
